Experimental data: US20240343706A1, “PIPERIDINE-2,6-DIONE DERIVATIVES WHICH BIND TO CEREBLON, AND METHODS OF USE THEREOF” (Captor Therapeutics S.A., priority 2019, published 2024)
Each block holds one compound with its values, some of them ahead of it.

Experiments:
[1] = molecular target: CRBN-DDB1 protein complex (Homo sapiens, UniProt Q96SW2); assay: Fluorescence polarization (FP) assay, displacement of Cy5-labelled thalidomide; settings: 25 nM CRBN-DDB1, 5 nM Cy5-labelled thalidomide, read-out: CRBN binding Ki
Protocol: CRBN-DDB1 protein complex was mixed with Cy5-labelled thalidomide and a compound to be tested (the “test compound”). […] The test solution was added to a 384-well assay plate.
The plate was spun-down (1 min, 1000 rpm, 22° C.) and then shaken using a VibroTurbulator for 10 min at room temperature (20-25° C.), with the frequency set to level 3. The assay plate with protein and the tracer was incubated for 60 min at room temperature (20-25° C.) prior to read-out with a plate reader.
The FP experiment was carried out with various concentrations of the test compounds in order to measure Ki values.

[2] = tested on: IKZF1; assay: IKZF1 degradation assay, H929 cell line (western blot densitometry); type: cell-based; settings: H929 cells
Excerpt: (§1) After primary and secondary Ab staining, the membranes were washed and signals developed. The densitometry analysis was implemented to obtain the numeric values used later in the protein level evaluation process.

[3] = tested on: IKZF3; assay: IKZF3 degradation assay, H929 cell line (western blot densitometry); type: cell-based; settings: H929 cells
[4] = molecular target: BRD4-compound-CRBN/DDB1 ternary complex (Homo sapiens, UniProt O60885+Q96SW2); assay: BRD4-compound-CRBN/DDB1 ternary complex formation, AlphaLISA homogenous assay; type: biochemical
Protocol: Biotinylated BRD4 and His-CRBN/DDB1 complex preparations were centrifugated to remove large aggregates (18000 rcf, 4° C., 5 min). Supernatant was collected and protein concentration was determined spectrophotometrically. The AlphaLISA bead-Protein mixtures were prepared: CRBN-acceptor bead (40 μg/ml Anti-6×His beads, 200 nM His-CRBN/DDB1 in PBS pH 7.4 supplemented with 0.1% Tween-20) and BRD4-donor bead (40 μg/ml Streptavidin beads, 40 nM BRD4 in PBS pH 7.4 supplemented with 0.1% Tween-20 and 2 mM DTT). Bead mixes were incubated in dark for 30 minutes at room temperature.
CRBN-acceptor bead mix and BRD4-donor bead mix were combined and dispensed into plate with compounds and DMSO only (10 μl of master mix per well). Final sample composition: 20 μg/ml Anti-6×His beads, 20 μg/ml Stretavidin beads, 100 nM His-CRBN/DDB1, 20 nM BRD4, 2% DMSO, 0.1% Tween-20, 1 mM DTT in PBS pH 7.4, +/− compound. Plate was sealed and covered to protect against light. Sample was mixed using Vibroturbulator. Subsequently, solutions in the plate was centrifugated and incubated in the dark for 30 minutes at 25° C. The plate seal was removed and sample luminescence was determined using Perkin Elmer Enspire plate reader. Readouts were assigned to certain compound concentration. Solutions without compound were utilized to determine background response (an average value) which subsequently was subtracted from raw data collected for compound mixtures.

[5] = molecular target: BRD4 (Homo sapiens, UniProt O60885); assay: BRD4 degradation assay, H929 cell line (Simple Western); settings: H929 cells, 6 h
[6] = tested on: SALL4; assay: SALL4 degradation assay, Kelly cell line (western blot densitometry); type: cell-based; settings: Kelly cells; for % of SALL4 protein reduction, based on densitometry values: 24 h
Excerpt: as §1

[7] = tested on: CK1α; assay: CK1α degradation assay, Kelly cell line (western blot densitometry); type: cell-based; settings: Kelly cells; for % of CK1α protein reduction, based on densitometry values: 24 h
Excerpt: as §1

[8] = summary Table 10, 24 H, 20 μM (some compounds 10 and 20 μM)

Ki [1]: 1000 to 10000 nM | EC50 ([4]; 100 nM His-CRBN/DDB1, 20 nM BRD4, N = 3, read-out: TF50 (compound concentration which mediate the half of maximal response observed for Ternary Complex)): 70.5 nM | Normalized AUC to dBET1 ([4]; area under curve 1.63-2500 nM, normalized to dBET1): 1.45 | BRD4 degradation (in words) [5]: can degrade BRD4
Structure (SMILES): Cc1sc2c(c1C)C(c1ccc(Cl)cc1)=N[C@@H](CC(=O)NCCCCCCCCNC(=O)CCc1nc3c(C(=O)NC4CCC(=O)NC4=O)cccc3[nH]1)c1nnc(C)n1-2 (stereo partly drawn) [Compound 64, 2-(3-((8-(2-((S)-4-(4-chlorophenyl)-2,3,9-trimethyl-6H-thieno[3,2-f][1,2,4]triazolo[4,3-a][1,4]diazepin-6-yl)acetamido)octyl)amino)-3-oxopropyl)-N-(2,6-dioxopiperidin-3-yl)-1H-benzo[d]imidazole-7-carboxamide]
% of IKZF1 α protein reduction based on densitometry values ([2]; 0.1 μM, 6 h): ≤25% (≤25% for 0-25% of IKZF1 protein reduction) | % of IKZF1 α protein reduction based on densitometry values ([2]; 1 μM, 6 h): ≤25% (≤25% for 0-25% of IKZF1 protein reduction) | % of IKZF1 α protein reduction based on densitometry values ([2]; 10 μM, 6 h): ≤25% (≤25% for 0-25% of IKZF1 protein reduction) | % of IKZF3 protein reduction based on densitometry values, IKZF3 Band I ([3]; 0.1 μM, 6 h): ≤25% (≤25% for 0-25% of IKZF3 protein reduction) | % of IKZF3 protein reduction based on densitometry values, IKZF3 Band II ([3]; 0.1 μM, 6 h): ≤25% (≤25% for 0-25% of IKZF3 protein reduction) | % of IKZF3 protein reduction based on densitometry values, IKZF3 Band I ([3]; 1 μM, 6 h): >25% (>25% for 26-74% of IKZF3 protein reduction) | % of IKZF3 protein reduction based on densitometry values, IKZF3 Band II ([3]; 1 μM, 6 h): ≤25% (≤25% for 0-25% of IKZF3 protein reduction) | % of IKZF3 protein reduction based on densitometry values, IKZF3 Band I ([3]; 10 μM, 6 h): ≤25% (≤25% for 0-25% of IKZF3 protein reduction) | % of IKZF3 protein reduction based on densitometry values, IKZF3 Band II ([3]; 10 μM, 6 h): ≤25% (≤25% for 0-25% of IKZF3 protein reduction)

Ki [1]: 1000 to 10000 nM
Structure (SMILES): Cc1nc2c(C(=O)NC3CCC(=O)NC3=O)cncc2[nH]1 (stereo not shown) [Compound 35, N-(2,6-dioxopiperidin-3-yl)-2-methyl-3H-imidazo[4,5-c]pyridine-7-carboxamide]
% of SALL4 protein reduction, based on densitometry values ([6]; 10 μM): ≤25% (≤25% for 0-25% of SALL4 protein reduction) | % of SALL4 protein reduction, based on densitometry values ([6]; 20 μM): ≤25% (≤25% for 0-25% of SALL4 protein reduction) | % of protein reduction based on densitometry values, SALL4 (24 H) [6, 8]: ≤25% (≤25% for 0-25% of SALL4 protein reduction) | % of CK1α protein reduction, based on densitometry values ([7]; 10 μM): ≤25% (≤25% for 0-25% of CK1a protein reduction) | % of CK1α protein reduction, based on densitometry values ([7]; 20 μM): ≤25% (≤25% for 0-25% of CK1a protein reduction) | % of protein reduction based on densitometry values, CK1α (24 H) [7, 8]: ≤25% (≤25% for 0-25% of CK1a protein reduction) | % of IKZF1 α protein reduction based on densitometry values ([2]; 10 μM, 24 h): ≤25% (≤25% for 0-25% of IKZF1 protein reduction) | % of IKZF1 α protein reduction based on densitometry values ([2]; 20 μM, 24 h): ≤25% (≤25% for 0-25% of IKZF1 protein reduction) | % of protein reduction based on densitometry values, IKZF 1 (24 H) [2, 8]: ≤25% (≤25% for 0-25% of IKZF1 protein reduction) | % of IKZF3 protein reduction based on densitometry values, IKZF3 Band I ([3]; 10 μM, 24 h): ≤25% (≤25% for 0-25% of IKZF3 protein reduction) | % of IKZF3 protein reduction based on densitometry values, IKZF3 Band II ([3]; 10 μM, 24 h): ≤25% (≤25% for 0-25% of IKZF3 protein reduction) | % of IKZF3 protein reduction based on densitometry values, IKZF3 Band I ([3]; 20 μM, 24 h): ≤25% (≤25% for 0-25% of IKZF3 protein reduction) | % of IKZF3 protein reduction based on densitometry values, IKZF3 Band II ([3]; 20 μM, 24 h): ≤25% (≤25% for 0-25% of IKZF3 protein reduction) | % of protein reduction based on densitometry values, IKZF3 (24 H) ([3]; summary Table 10, 24 H, 10 and 20 μM): ≤25% (≤25% for 0-25% of IKZF3 protein reduction)
